Laboratory results taken from article PMC7698842, “Lanostane Triterpenoid Metabolites from a Penares sp. Marine Sponge Protect Neuro-2a Cells against Paraquat Neurotoxicity” (Molecules, 2020).

Tests used:
[1] = tested on: PQ-treated Neuro-2a cells; experiment: PQ-treated Neuro-2a cell viability (FDA assay); assay type: cell-based, mouse; details: 24 h
Protocol: A stock solution of the fluorescein diacetate (FDA) (Sigma-Aldrich, St. Louis, MO, USA) in DMSO (1 mg/mL) was prepared. The cells (1 × 10^4 cells/well) were seeded in black 96-well plates before testing. After incubation of the cells with compounds and PQ during 24 h, FDA solution (50 μg/mL) was added to each well and the plate was incubated in the dark at 37 °C for 15 min. Cells were washed with phosphate buffer saline (PBS) (BioloT, S.-Peterburg, Russia) and fluorescence was measured with a Fluoroskan Ascent plate reader (Thermo Labsystems, Helsinki, Finland) at λex = 485 nm and λem = 518 nm. All manipulations with fluorescent probes were carried out in a darkened room. Cell viability was expressed as the percent of control.
(§1) The cells (1 × 10^4 cells/well of a 96-well plate) were treated with studied compounds at concentrations of 1 and 10 µM for 1 h and then 500 µM of PQ (Sigma-Aldrich, St. Louis, MO, USA) was added to the neuroblastoma cells. Cells incubated without PQ and compounds and with PQ alone were used as positive and negative controls, respectively. The viability of cells was measured after 24 h using MTT and FDA methods. The results were presented as percent of positive control data.

[2] = tested on: PQ-treated Neuro-2a cells; experiment: PQ-treated Neuro-2a cell viability (MTT assay); assay type: cell-based, mouse; details: 24 h; for effect on PQ-treated cell viability (MTT assay): compound 1 and 10 µM, PQ 500 µM
Protocol: (§2) The cells (1 × 10^4 cells/well of a 96-well plate) were incubated with different concentrations of studied compounds during 24 h. After that, cell viability was determined by the MTT (3-(4,5-dimethylthiazol-2-yl)-2,5-diphenyltetrazolium bromide) method according to the manufacturer’s instructions (Sigma-Aldrich, St. Louis, MO, USA). Absorbance of the converted formazan was measured using a Multiskan FC microplate photometer (Thermo Scientific, Waltham, MA, USA) at λ = 570 nm. The results were presented as percent of control data, and concentration of cell viability inhibition on 50% (IC50) was calculated.
as §1

[3] = DPPH radical scavenging assay (cell-free); details: 30 min, MeOH
Protocol: The 2,2-diphenyl-1-picryl-hydrazyl-hydrate (DPPH) radical scavenging activity was tested as described previously. The compounds were dissolved in MeOH, and the solutions (120 µL) were dispensed into wells of a 96-well microplate. The DPPH (Sigma-Aldrich, Steinheim, Germany) was dissolved in MeOH at a concentration of 7.5 × 10^−3 M and the solution (30 µL) was added to each well. The concentrations of tested compounds in the mixtures were 10 and 100 µM. Ascorbic acid was used as a positive control. The mixtures were shaken and left for 30 min. The absorbance of the resulting solutions was measured at λ = 520 nm with a MultiscanFC plate reader (Thermo Scientific, Waltham, MA, USA). The concentration scavenging 50% of the DPPH radical (EC50) was calculated for each compound.

[4] = tested on: ROS level in PQ-treated Neuro-2a cells; experiment: ROS level analysis in PQ-treated Neuro-2a cells (H2DCFDA); assay type: cell-based, mouse; details: for concentrations at which ROS content in PQ-treated cells was reduced: tested at 1 and 10 μM
Protocol: The cells (1 × 10^4 cells/well of a 96-well plate) were incubated with compound solutions (1 and 10 µM) during 1 h. Then, PQ was added to cell suspension to a resulting concentration of 500 µM for incubation during 1 h. Cells incubated without PQ and compounds and with PQ alone were used as positive and negative controls, respectively. The 20 µL of 2,7-dichlorodihydrofluorescein diacetate solution (H2DCFDA, Molecular Probes, Eugene, OR, USA) was added to each well (10 µM, final concentration) and the plate was incubated for an additional 10 min at 37 °C. The intensity of dichlorofluorescin fluorescence was measured with a PHERAstar FS plate reader (BMG Labtech, Ortenberg, Germany) at λex = 485 nm and λem = 518 nm. The data were processed by MARS Data Analysis v. 3.01R2 (BMG Labtech, Ortenberg, Germany). The results were presented as percent of positive control data.

[5] = Cytotoxicity toward Neuro-2a cells (MTT assay); assay type: cell-based, mouse; details: mouse, Neuro-2a neuroblastoma cells, 24 h; for activity at 24 h, 10 µM: Neuro-2a cell viability, read-out: Cytotoxicity (MTT Assay) % of Control at 10 μM; for IC50 at 24 h: Neuro-2a cells
Protocol: (§3) The cells of mouse neuroblastoma cell line Neuro-2a (ATCC® CCL-131™; American Type Culture Collection, Manassas, VA, USA) were cultured in Dulbecco’s modified Eagle’s medium (DMEM) containing 10% fetal bovine serum (Biolot, St. Petersburg, Russia) and 1% penicillin/streptomycin (Biolot, St. Petersburg, Russia) at 37 °C in a humidified atmosphere with 5% (v/v) CO2. Initially, cells were incubated in cultural flasks until sub-confluent (~80%). For testing, Neuro-2a cells were seeded in 96- or 6-well plates and experiments were started after 24 h.
as §2

Neuro-2a cells = experiment: Cytotoxicity toward Neuro-2a cells (MTT assay); assay type: cell-based, mouse; details: Neuro-2a cells, 100 μM, MTT assay
Protocol: as §3, §2

[6] = tested on: PQ-treated Neuro-2a cells; experiment: Neurite outgrowth estimation in PQ-treated Neuro-2a cells; assay type: cell-based, mouse
Protocol: Neurite outgrowth was studied as described by Li et al.. Neuro-2a cells were seeded in 6-well plates (1.6 × 10^5 cells/well) in DMEM medium containing 10% fetal bovine serum (Biolot, St. Peterburg, Russia) and 1% penicillin/streptomycin (Invitrogen, Carlsbad, CA, USA). The next day, this growth media was changed with serum-free DMEM media containing 1% penicillin/streptomycin, and cells were treated with studied compounds at a concentration of 10 µM for 1 h. After that, PQ (500 µM) was added and cells were incubated during 24 h. Cells incubated without PQ and compounds and with PQ alone were used as positive and negative controls, respectively.
For each well, approximately 10 images were acquired randomly by scanning the wells from left to right and top to bottom using the AxioImager A1 microscope (CarlZeiss, Oberkochen, Germany). A total of ten random fields (near 350 cells in each) for each experimental group were scored for neurite outgrowth. The number of neurite-bearing cells and lengths of the individual neurites for each cell were measured using the AxioVision 4.7.1 software (CarlZeiss, Oberkochen, Germany). Length was defined as the straight-line distance from the tip of the neurite to the junction between the cell body and neurite base. In the case of branched neurites, the length of the longest branch was measured from the tip of the neurite to the cell body. In each experimental group, the average length of neurites was calculated, as well as the average number of neurites per one cell.

[7] = tested on: Hsp70 level in Neuro-2a cells; experiment: Hsp70 level analysis by Western blot in Neuro-2a cells; assay type: cell-based, mouse; details: for increase of Hsp70 level in PQ-treated cells: compound 10 µM 1 h, then PQ 500 µM 24 h
Protocol: The Hsp70 expression was detected by Western blot analysis. Cell suspensions (1.6 × 10^5 cells/well of a 6-well plate) were seeded and treated with studied compounds at a concentration of 10 µM for 1 h. After that, PQ (500 µM) was added and cells were incubated during 24 h. Cells incubated without PQ and compounds and with PQ alone were used as positive and negative controls, respectively. Cells were washed by cold PBS (BioloT, Russia) twice and lysed by radioimmunoprecipitation assay (RIPA) buffer (BioloT, St. Peterburg, Russia). The amount of proteins was measured by the Bradford method and equal samples (25 µg) were prepared using sample buffer. Proteins were separated with sodium dodecyl sulphate (SDS) electrophoresis in 10% polyacrylamide gel. The electrophoretically separated proteins were transferred onto the polyvinylidene difluoride (PVDF) membrane Whatman (Sigma-Aldrich, St. Louis, MO, USA) using a semi-dry transfer apparatus (Helicon, Moscow, Russia). […] The peroxidase reaction was visualized by an enhanced chemiluminescence (ECL) kit according to the instructions of the manufacturer (Sigma-Aldrich, St. Louis, MO, USA) using the VersaDoc Imaging System (Bio-Rad, Hercules, CA, USA).

[8] = tested on: PQ-treated Neuro-2a cells; experiment: Propidium iodide straining of PQ-treated Neuro-2a cells (membrane permeability); assay type: cell-based, mouse; details: 24 h; for decrease of fluorescence of PI-straining cells: compound 10 μM pre-incubation, PQ-treated cells
Protocol: The cells (1 × 10^4 cells/well) were seeded in black 96-well plates before testing. After incubation of the cells with compounds and PQ during 24 h, PI solution (10 μg/mL) was added to each well and the plate was incubated in the dark at 37 °C for 10 min. Cells were washed with phosphate buffer saline (PBS) (BioloT, St.Peterburg, Russia) and fluorescence was measured with a Fluoroskan Ascent plate reader (Thermo Labsystems, Helsinki, Finland) at […]. All manipulations with fluorescent probes were carried out in a darkened room. The results were presented as percent of positive control data.

[9] = tested on: mitochondrial membrane potential in PQ-treated Neuro-2a cells; experiment: Mitochondrial membrane potential detection (TMRM) in PQ-treated Neuro-2a cells; assay type: cell-based, mouse
Protocol: The cells (1 × 10^4 cells/well of a 96-well plate) were incubated with compound solutions (1 and 10 µM) during 1 h. Then, PQ was added to cell suspension to a resulting concentration of 500 µM for incubation during 1 h. Cells incubated without PQ and compounds and with PQ alone were used as positive and negative controls, respectively. The tetramethylrhodamine methyl (TMRM) (Sigma-Aldrich, St. Louis, MO, USA) solution at 500 nM was added in each well and cells were incubated for 30 min at 37 °C. The intensity of fluorescence was measured with a PHERAstar FS plate reader (BMG Labtech, Ortenberg, Germany) at λex = 540 nm and λem = 590 nm. The data were processed by MARS Data Analysis v. 3.01R2 (BMG Labtech, Ortenberg, Germany). The results were presented as percent of positive control data.

[10] = compound 10 µM 1 h, then PQ 500 µM 24 h
[11] = PQ-treated cells (PQ alone 500 µM)

CC(C)=CCC[C@@H](C)[C@H]1CC[C@@]2(C(=O)O)C3=C(CC[C@]12C)[C@@]1(C)CCC(=O)[C@@H](C)[C@@H]1CC3 [Compound 3, 29-nor-penasterone]
effect on PQ-treated cell viability (FDA assay) ([1]; compound 1 and 10 µM, PQ 500 µM): did not show any effect | effect on PQ-treated cell viability (MTT assay) [2]: did not show any effect | EC50 [3]: > 100 µM | concentrations at which ROS content in PQ-treated cells was reduced ([4]; PQ 500 µM 1 h): reduced ROS content only at a concentration of 10 μM | activity at 24 h, 10 µM [5]: 91.1 ± 4.1% | IC50 at 24 h [5]: > 100 µM | death of cells (Neuro-2a cells): 37.4% | increase in the average number of neurites per cell [6, 10]: 17% | increase of neurites-bearing cell amount compared to PQ-treated control [6, 10]: 113% | increase of Hsp70 level in PQ-treated cells [7]: 26%

CC(C)=CCC[C@@H](C)[C@H]1CC[C@]23C(=O)O[C@]4(CC[C@]12C)[C@]31O[C@H]1C[C@H]1C(C)(C)[C@@H](O)CC[C@@]14C [Compound 2, 3β-hydroxy-7β,8β-epoxy-5α-lanost-24-en-30,9α-olide]
decrease of fluorescence of PI-straining cells [8]: 12% | effect on PQ-treated cell viability (MTT assay) [2]: did not show any effect | EC50 [3]: > 100 µM | concentrations at which ROS content in PQ-treated cells was reduced ([4]; PQ 500 µM 1 h): reduced ROS content only at a concentration of 10 μM | activity at 24 h, 10 µM [5]: 96.9 ± 1.1% | IC50 at 24 h [5]: > 100 µM | increase in the average number of neurites per cell [6, 10]: 12% | increase of Hsp70 level in PQ-treated cells [7]: 43%

CC(=O)O[C@H]1CC[C@@]2(C)[C@@H](C[C@@H]3O[C@]34[C@]23CC[C@]2(C)[C@@H]([C@H](C)CCC=C(C)C)CC[C@@]42C(=O)O3)C1(C)C [Compound 1, 3β-acetoxy-7β,8β-epoxy-5α-lanost-24-en-30,9α-olide]
increase of intensity of TMRM fluorescence (PQ-induced mitochondrial dysfunction diminished) ([9]; compound 10 μM, PQ 500 µM 1 h): 37% | decrease of fluorescence of PI-straining cells [8]: 16% | EC50 [3]: > 100 µM | effect on ROS level in PQ-treated cells ([4]; compound 1 and 10 µM, 1 h pre-treatment, PQ 500 µM 1 h): did not affect ROS level | activity at 24 h, 10 µM [5]: 92.1 ± 7.1% | IC50 at 24 h [5]: 85.7 ± 2.4 µM | increase in the average number of neurites per cell [6, 10]: 16% | effect on the number of neurite-bearing PQ-treated cells ([6]; compound 10 µM, PQ 500 µM): did not show a statistical effect | increase of Hsp70 level in PQ-treated cells [7]: 62%

N,N-dimethyl-4,4-bipyridinium dichloride [PQ, reference compound]
PQ-treated cell viability, % of control cells (FDA assay) ([1]; PQ alone 500 µM): 62.2% | decrease of TMRM fluorescence ([9]; PQ alone, 1 h exposition): 30% | increase in the number of PI-straining cells ([8]; PQ alone, versus control): 35% | PQ-treated cell viability, % of control cells (MTT assay) ([2]; PQ alone 500 µM): 45.4% | increase of ROS level compared to control cells ([4]; PQ alone 500 µM, within 1 h): 40% | average length of neurites, less than control value by ([6]; PQ alone 500 µM, 24 h): 29% | number of neurites per cell, less than control value by ([6]; PQ alone 500 µM, 24 h): 14% | cells with neurites ([6]; PQ alone 500 µM, 24 h, control 30%): 10% | proportion of neurites with a length of 0–4.99 µm in the total number [6, 11]: 11.1% | proportion of neurites with a length of 10.00–14.99 µm in the total number [6, 11]: 16.6% | change of Hsp70 level in comparison with control cells ([7]; PQ alone 500 µM, 24 h): half-decrease

O=C1O[C@H]([C@@H](O)CO)C(O)=C1O [Ascorbic acid, reference compound]
EC50 [3]: 20.5 ± 1.5 µM
